Measurements as given in PubChem BioAssay (NCI).
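All cell lines were grown in 96-well plates and treated with compound for 48 hours. The concentration for full growth arrest is given as TGI.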

How the values were obtained:
Experiment in all cases: NCI anticancer screen, dose series, 48 h
[1] = system: SNB-75 CNS
[2] = system: MOLT-4 leukemia
[3] = system: UACC-257 melanoma
[4] = system: HT29 colon
[5] = system: RXF 393 renal
[6] = system: COLO 205 colon
[7] = system: HL-60(TB) leukemia
[8] = system: NCI-H460 lung

NC(N)=N/N=C/c1c(-c2ccccc2[N+](=O)[O-])nc2sccn12
TGI [1]: 34.2 µM
TGI [2]: 46 µM
TGI [3]: 35.6 µM
TGI [4]: 81.6 µM
TGI [5]: 32.4 µM
TGI [6]: 29.4 µM
TGI [7]: 40.4 µM
TGI [8]: 39.7 µM

CC(C)(C)N(Cc1ccccc1)C(=O)/C=C\S(=O)c1ccccc1 (centres undefined)
TGI [1]: 23.1 µM
TGI [2]: 7.39 µM
TGI [3]: 16.2 µM
TGI [4]: 14.3 µM
TGI [5]: 13.8 µM
TGI [6]: 12.8 µM
TGI [7]: 6.54 µM
TGI [8]: 16 µM

Clc1ccc(/C=C/c2nc(-c3ccccc3)cn3c2nc2ccccc23)cc1Cl
TGI [2]: > 100 µM
TGI [3]: > 100 µM
TGI [4]: > 100 µM
TGI [5]: > 100 µM
TGI [6]: > 100 µM
TGI [7]: 49.7 µM
TGI [8]: > 100 µM

N=c1sc2ccccc2n1CCS (tested in a mixture with another compound)
TGI [1]: > 100 µM
TGI [2]: 8.45 µM
TGI [3]: 45.8 µM
TGI [4]: 37.1 µM
TGI [5]: 48.5 µM
TGI [6]: 27.5 µM
TGI [7]: 66.9 µM
TGI [8]: 27.5 µM

N#CC(C#N)=c1c(=O)c2c3ccccc3cc3cccc1c32
TGI [1]: > 100 µM
TGI [2]: > 100 µM
TGI [3]: > 100 µM
TGI [4]: > 100 µM
TGI [6]: > 100 µM
TGI [7]: > 100 µM
TGI [8]: > 100 µM

COCCN(C(=O)c1ccccc1)C1CCC2(SCCS2)c2[nH]c3ccccc3c21 (centres undefined)
TGI [1]: > 100 µM
TGI [2]: 69.4 µM
TGI [3]: > 100 µM
TGI [4]: > 100 µM
TGI [5]: 87.7 µM
TGI [6]: > 100 µM
TGI [7]: 55.2 µM
TGI [8]: > 100 µM

C=C1CC[C@](C)(O)[C@@]2(C)CC[C@H]3C(=C(C)C)C(=O)C[C@]3(C)C[C@H]12
TGI [1]: > 50 µM
TGI [2]: 31.6 µM
TGI [3]: > 50 µM
TGI [4]: > 50 µM
TGI [5]: > 50 µM
TGI [6]: > 50 µM
TGI [7]: 18.9 µM

COc1cc2nc(-c3cccs3)nc(Nc3cccc([N+](=O)[O-])c3)c2cc1OC
TGI [1]: 78.8 µM
TGI [2]: > 100 µM
TGI [3]: 44.2 µM
TGI [4]: > 100 µM
TGI [5]: 74.1 µM
TGI [6]: 54.1 µM
TGI [7]: > 100 µM
TGI [8]: 77.1 µM

O=C1CSC(c2c[nH]c3ccccc23)N1c1cccc(Cl)c1 (centres undefined)
TGI [1]: > 100 µM
TGI [2]: > 100 µM
TGI [3]: > 100 µM
TGI [4]: > 100 µM
TGI [5]: > 100 µM
TGI [6]: > 100 µM
TGI [7]: > 100 µM
TGI [8]: > 100 µM

COc1ccc(/C=C/C(=O)c2cc(OC)cc(OC)c2)cc1
TGI [1]: 8.19 µM
TGI [2]: > 26.6 µM
TGI [3]: 26.9 µM
TGI [4]: 4.96 µM
TGI [5]: 8.6 µM
TGI [6]: 16.8 µM
TGI [7]: 9.73 µM
TGI [8]: 14.4 µM

CN(C)c1cccc(-c2cc(=S)c3cc4c(cc3[nH]2)OCO4)c1
TGI [2]: > 93 µM
TGI [3]: > 100 µM
TGI [4]: 24.7 µM
TGI [5]: 43.3 µM
TGI [6]: > 100 µM
TGI [8]: > 100 µM

Cc1ccc2c(c1C)C(=O)C1(C2)Cc2ccc3c(c2C1=O)CCC3 (centres undefined)
TGI [1]: > 100 µM
TGI [2]: > 100 µM
TGI [3]: > 100 µM
TGI [4]: > 100 µM
TGI [5]: > 100 µM
TGI [6]: > 100 µM
TGI [7]: > 100 µM
TGI [8]: > 100 µM

CSC(=S)CC(O)[C@@H]1CC2c3ccccc3C1c1ccccc12 (some centres undefined)
TGI [2]: 8.24 µM
TGI [4]: 15 µM
TGI [5]: 7.54 µM
TGI [6]: 36.4 µM
TGI [7]: 7.96 µM
TGI [8]: 40.8 µM

C=C1c2nc3ccccc3n2C=C(c2ccc(OC)cc2)N1c1ccc(OCCN2CCCCC2)cc1
TGI [1]: > 100 µM
TGI [2]: 38.6 µM
TGI [3]: 10.8 µM
TGI [4]: 43.3 µM
TGI [5]: > 77 µM
TGI [6]: 36.4 µM
TGI [7]: 20 µM
TGI [8]: 14.8 µM

COc1ccc2c(c1)/C(=C/c1c(O)[nH]c(=S)[nH]c1=O)C=N2
TGI [1]: 49.9 µM
TGI [2]: > 100 µM
TGI [3]: > 100 µM
TGI [4]: > 100 µM
TGI [5]: 96.9 µM
TGI [6]: > 100 µM
TGI [7]: > 100 µM
TGI [8]: > 100 µM

COc1cc2c(cc1OS(C)(=O)=O)N=C[C@@H]1CCCN1C2=O
TGI [1]: > 100 µM
TGI [2]: > 100 µM
TGI [3]: > 100 µM
TGI [4]: > 100 µM
TGI [5]: > 100 µM
TGI [6]: > 100 µM
TGI [7]: > 100 µM
TGI [8]: > 100 µM

COc1cc2nc3n(c2cc1OC)C(O)c1c(Cl)nc(SC)nc1S3 (centres undefined)
TGI [1]: > 68 µM
TGI [2]: > 48.9 µM
TGI [3]: 52.5 µM
TGI [4]: > 100 µM
TGI [5]: 14.8 µM
TGI [6]: 22.9 µM
TGI [8]: 19.6 µM

CC(C)=CCC[C@@H](C)[C@H]1CC[C@@]2(C)[C@@H]3CC[C@H]4C(C)(C)[C@@H](O)CC[C@@]45C[C@@]35CC[C@]12C
TGI [1]: > 100 µM
TGI [2]: > 87.2 µM
TGI [3]: > 100 µM
TGI [4]: > 100 µM
TGI [5]: 45.1 µM
TGI [6]: > 100 µM
TGI [7]: > 95.4 µM
TGI [8]: 39.8 µM

CC(=O)OCC1OC(n2c3c(c(-c4ccc(C)cc4)c(C#N)c2=S)C(=O)CC(C)(C)C3)C(OC(C)=O)C(OC(C)=O)C1OC(C)=O (centres undefined)
TGI [1]: 82.5 µM
TGI [2]: > 100 µM
TGI [3]: 38.3 µM
TGI [4]: > 100 µM
TGI [5]: 92.2 µM
TGI [6]: > 100 µM
TGI [7]: > 100 µM
TGI [8]: > 100 µM

CC1(C)CNC(=O)C2(CCCO2)CNC(C)(C)CNC(=O)C2(CCCO2)CN1 (centres undefined)
TGI [1]: > 10 µM
TGI [2]: > 10 µM
TGI [3]: > 10 µM
TGI [4]: > 10 µM
TGI [6]: > 10 µM
TGI [7]: > 10 µM

C=CCN1C(=O)CC2[C@@H]3CCc4cc(O)ccc4C3CC[C@]2(C)C1=O (some centres undefined)
TGI [2]: > 10 µM
TGI [3]: > 10 µM
TGI [4]: > 10 µM
TGI [5]: > 10 µM
TGI [6]: > 10 µM
TGI [7]: > 10 µM
TGI [8]: > 10 µM

COc1cc(CN=c2nc(N(C)C)ss2)cc(OC)c1OC
TGI [1]: > 10 µM
TGI [2]: 7.18 µM
TGI [3]: > 10 µM
TGI [4]: > 10 µM
TGI [5]: > 10 µM
TGI [6]: > 10 µM
TGI [7]: 4.47 µM
TGI [8]: > 10 µM

CN1CCN(c2cc3[nH]c4cc(O)cc(O)c4c(=O)c3cc2N)CC1
TGI [1]: 45.1 µM
TGI [2]: 4.58 µM
TGI [3]: > 100 µM
TGI [4]: 63.6 µM
TGI [5]: 49 µM
TGI [6]: 32 µM
TGI [7]: > 100 µM
TGI [8]: > 100 µM

C#CCOC(=O)C(N)CC(N)=O (centres undefined)
TGI [1]: > 100 µM
TGI [2]: > 100 µM
TGI [3]: > 100 µM
TGI [4]: > 31.6 µM
TGI [5]: > 100 µM
TGI [6]: > 100 µM
TGI [7]: > 100 µM
TGI [8]: > 100 µM

Cc1ccc(-c2n[nH]c(=O)n2/N=C\c2ccccc2O)cc1
TGI [1]: > 100 µM
TGI [2]: > 100 µM
TGI [3]: > 100 µM
TGI [4]: > 100 µM
TGI [5]: > 100 µM
TGI [6]: > 100 µM
TGI [7]: > 100 µM
TGI [8]: > 100 µM
